From US11993599B2, “Therapeutic compounds” (Genentech, Inc., priority 2021, dated 2024)

What was measured:
BRG1 = biological target: T1, BRG1 (Homo sapiens, UniProt P51532); assay: Immunofluorescence assay for BRG1 degradation in SW1573 cells; assay type: cell-based; details: 20 hours incubation; for DC50: immunofluorescence mean nuclear signal, read-out: BRG1 IF Degradation IC50; for Dmax: SW1573, 20 h, read-out: BRG1 IF Degradation Sinf (%)
T1 construct: either BRM primary antibody (Cell signaling Cat #11966) or BRG primary antibody (Abcam, ab 110641); endogenous in cells; host or cells: SW1573
Method in brief: (§1)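 SW1573 cells treated with compound for 20 h, then fixed, permeabilized and immunostained for BRM or BRG1 with Hoechst nuclear counterstain. Mean nuclear intensity per cell quantified by high-content imaging; data normalized to a reference degrader control, with floating-maximum curve fits giving IC50 and Dmax.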

BRM = BRM (Homo sapiens, UniProt P51531); assay: Immunofluorescence assay for BRM degradation in SW1573 cells; assay type: cell-based; parameters: treated overnight at 4° C. with either BRM primary antibody (Cell signaling Cat #11966) or BRG primary antibody; endogenous in cells; host or cells: SW1573; details: 20 hours incubation; for DC50: immunofluorescence mean nuclear signal, read-out: BRM IF Degradation IC50; for BRM IF Degradation Sinf (%): normalized to a known degrader control
Method in brief: as §1

[1] = normalized to a known degrader control

T1 sequence (P51532 whole entry): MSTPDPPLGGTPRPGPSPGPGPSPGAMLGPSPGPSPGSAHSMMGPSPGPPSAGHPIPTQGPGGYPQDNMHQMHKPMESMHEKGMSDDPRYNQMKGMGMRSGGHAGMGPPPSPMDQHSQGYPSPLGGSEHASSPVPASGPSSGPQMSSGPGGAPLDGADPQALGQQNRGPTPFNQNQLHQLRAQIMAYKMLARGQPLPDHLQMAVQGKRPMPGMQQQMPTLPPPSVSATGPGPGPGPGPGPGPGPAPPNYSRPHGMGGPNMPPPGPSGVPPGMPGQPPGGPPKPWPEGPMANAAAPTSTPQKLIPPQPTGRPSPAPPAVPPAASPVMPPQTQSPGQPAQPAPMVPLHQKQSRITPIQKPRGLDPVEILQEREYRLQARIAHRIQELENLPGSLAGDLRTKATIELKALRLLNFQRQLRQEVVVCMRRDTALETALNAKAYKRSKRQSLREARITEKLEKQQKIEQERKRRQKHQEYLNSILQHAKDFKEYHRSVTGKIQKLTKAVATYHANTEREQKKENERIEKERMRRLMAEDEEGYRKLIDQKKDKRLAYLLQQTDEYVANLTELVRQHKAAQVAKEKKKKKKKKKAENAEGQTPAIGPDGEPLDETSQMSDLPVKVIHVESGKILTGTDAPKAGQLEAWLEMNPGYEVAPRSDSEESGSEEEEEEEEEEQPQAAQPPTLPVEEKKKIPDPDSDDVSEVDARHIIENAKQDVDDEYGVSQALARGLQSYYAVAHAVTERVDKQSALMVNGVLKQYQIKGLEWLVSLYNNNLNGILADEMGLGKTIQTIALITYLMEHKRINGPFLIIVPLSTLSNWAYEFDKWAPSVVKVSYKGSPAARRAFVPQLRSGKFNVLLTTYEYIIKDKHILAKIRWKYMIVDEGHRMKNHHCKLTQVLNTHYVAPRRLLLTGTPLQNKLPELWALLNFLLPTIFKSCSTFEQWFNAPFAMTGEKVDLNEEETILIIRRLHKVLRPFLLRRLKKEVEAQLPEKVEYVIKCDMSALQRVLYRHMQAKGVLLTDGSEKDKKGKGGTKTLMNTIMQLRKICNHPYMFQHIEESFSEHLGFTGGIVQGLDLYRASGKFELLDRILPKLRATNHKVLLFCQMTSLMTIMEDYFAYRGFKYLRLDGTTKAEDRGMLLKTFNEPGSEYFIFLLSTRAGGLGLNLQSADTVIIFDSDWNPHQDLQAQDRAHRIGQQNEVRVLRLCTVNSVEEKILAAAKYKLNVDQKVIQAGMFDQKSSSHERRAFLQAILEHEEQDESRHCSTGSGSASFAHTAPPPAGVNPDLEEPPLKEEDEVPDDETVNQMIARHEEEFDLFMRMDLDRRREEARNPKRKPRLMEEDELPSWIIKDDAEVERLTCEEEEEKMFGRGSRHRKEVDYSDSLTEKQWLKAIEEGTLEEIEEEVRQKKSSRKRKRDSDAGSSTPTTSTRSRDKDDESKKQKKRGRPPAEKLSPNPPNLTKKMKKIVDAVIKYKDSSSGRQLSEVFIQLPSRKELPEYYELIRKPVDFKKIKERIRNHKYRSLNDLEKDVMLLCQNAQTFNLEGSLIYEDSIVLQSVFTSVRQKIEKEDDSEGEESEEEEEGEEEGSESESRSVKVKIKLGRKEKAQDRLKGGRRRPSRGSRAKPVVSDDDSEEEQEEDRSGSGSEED
Chain of BRM (P51531 whole entry): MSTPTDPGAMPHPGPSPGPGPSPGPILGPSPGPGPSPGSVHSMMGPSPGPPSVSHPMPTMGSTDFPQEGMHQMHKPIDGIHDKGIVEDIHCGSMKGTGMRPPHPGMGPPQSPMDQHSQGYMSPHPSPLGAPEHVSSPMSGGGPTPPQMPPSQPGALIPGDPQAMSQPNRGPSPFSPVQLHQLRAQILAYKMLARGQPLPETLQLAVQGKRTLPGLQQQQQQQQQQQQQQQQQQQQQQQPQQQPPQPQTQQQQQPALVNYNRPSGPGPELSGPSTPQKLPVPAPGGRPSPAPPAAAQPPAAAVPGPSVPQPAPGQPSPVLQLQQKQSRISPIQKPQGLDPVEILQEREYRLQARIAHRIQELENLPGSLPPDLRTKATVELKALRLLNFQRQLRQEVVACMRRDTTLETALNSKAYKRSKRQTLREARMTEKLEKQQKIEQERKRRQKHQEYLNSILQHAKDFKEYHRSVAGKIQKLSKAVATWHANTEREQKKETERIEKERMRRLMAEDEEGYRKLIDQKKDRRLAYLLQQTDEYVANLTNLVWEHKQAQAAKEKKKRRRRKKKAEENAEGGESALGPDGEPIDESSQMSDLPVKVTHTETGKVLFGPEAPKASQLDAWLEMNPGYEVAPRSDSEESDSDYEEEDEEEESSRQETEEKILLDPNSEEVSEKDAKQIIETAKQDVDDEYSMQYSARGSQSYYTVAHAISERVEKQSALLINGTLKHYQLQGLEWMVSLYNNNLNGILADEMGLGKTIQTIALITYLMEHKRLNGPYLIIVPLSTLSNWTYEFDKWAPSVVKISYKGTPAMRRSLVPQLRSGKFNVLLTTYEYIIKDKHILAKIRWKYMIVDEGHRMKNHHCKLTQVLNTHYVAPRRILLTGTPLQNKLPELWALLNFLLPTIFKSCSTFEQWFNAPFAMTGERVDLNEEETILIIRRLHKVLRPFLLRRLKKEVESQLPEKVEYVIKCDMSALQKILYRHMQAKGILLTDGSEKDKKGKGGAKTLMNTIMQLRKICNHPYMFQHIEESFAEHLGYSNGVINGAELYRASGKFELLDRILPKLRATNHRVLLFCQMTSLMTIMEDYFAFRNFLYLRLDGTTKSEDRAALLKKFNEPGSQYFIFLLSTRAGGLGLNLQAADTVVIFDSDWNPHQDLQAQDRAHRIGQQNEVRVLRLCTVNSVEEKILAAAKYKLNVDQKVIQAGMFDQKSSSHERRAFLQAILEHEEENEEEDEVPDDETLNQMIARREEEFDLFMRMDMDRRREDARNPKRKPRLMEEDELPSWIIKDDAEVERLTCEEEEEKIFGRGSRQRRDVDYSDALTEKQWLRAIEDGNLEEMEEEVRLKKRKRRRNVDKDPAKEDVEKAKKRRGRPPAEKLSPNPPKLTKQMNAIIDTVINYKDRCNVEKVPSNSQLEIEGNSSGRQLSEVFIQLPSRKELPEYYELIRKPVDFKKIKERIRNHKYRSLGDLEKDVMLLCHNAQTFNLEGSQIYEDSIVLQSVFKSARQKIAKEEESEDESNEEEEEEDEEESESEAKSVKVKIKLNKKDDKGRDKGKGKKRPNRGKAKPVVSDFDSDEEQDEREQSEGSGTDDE

SMILES	DC50 (BRG1) [nM]	Dmax (BRG1; [1]) [%]	DC50 (BRM) [nM]	BRM IF Degradation Sinf (%) (BRM)	BRG1 IF Degradation Sinf (%) (BRG1; [1])
Nc1nnc(-c2ccccc2O)cc1N1CC2CCC(C1)N2c1ccnc(C#CCN2CCC[C@@H]3CC[C@@H]32)c1 [Compound 102, 2-[6-amino-5-[8-[2-[3-[(1S,6R)-2-azabicyclo[4.2.0]octan-2-yl]prop-1-ynyl]-4-pyridyl]-3,8-diazabicyclo[3.2.1]octan-3-yl]pyridazin-3-yl]phenol]	< 10	30 to 70	< 10	E (E indicates −30%-−70%)	–
Nc1nnc(-c2ccccc2O)cc1N1CC2CCC(C1)N2c1ccnc(C#CCN2CCCC(C(F)(F)F)CC2)c1 (centres unmarked) [Compound 209, 2-[6-amino-5-[8-[2-[3-[4-(trifluoromethyl)azepan-1-yl]prop-1-ynyl]-4-pyridyl]-3,8-diazabicyclo[3.2.1]octan-3-yl]pyridazin-3-yl]phenol]	< 10	30 to 70	< 10	F (F indicates −71%-−120%)	–
Nc1nnc(-c2ccccc2O)cc1N1CC2CCC(C1)N2c1ccnc(C#CCN2CC3CC3(O)C2)c1 (centres unmarked) [Compound 105, 3-(3-(4-(3-(3-amino-6-(2-hydroxyphenyl)pyridazin-4-yl)-3,8-diazabicyclo[3.2.1]octan-8-yl)pyridin-2-yl)prop-2-yn-1-yl)-3-azabicyclo[3.1.0]hexan-1-ol]	10 to 100	0 to 30	10 to 100	E (E indicates −30%-−70%)	–
CNC(=O)C1CCCCN1CC#Cc1cc(N2C3CCC2CN(c2cc(-c4ccccc4O)nnc2N)C3)ccn1 (centres unmarked) [Compound 96, 1-[3-[4-[3-[3-amino-6-(2-hydroxyphenyl)pyridazin-4-yl]-3,8-diazabicyclo[3.2.1]octan-8-yl]-2-pyridyl]prop-2-ynyl]-N-methyl-piperidine-2-carboxamide]	10 to 100	0 to 30	> 100	E (E indicates −30%-−70%)	–
Nc1nnc(-c2ccccc2O)cc1N1CC2CCC(C1)N2c1ccnc(C#CCN2CCC3(CCOC3)C2)c1 (centres unmarked) [Compound 140, 2-[6-amino-5-[8-[2-[3-(2-oxa-7-azaspiro[4.4]nonan-7-yl)prop-1-ynyl]-4-pyridyl]-3,8-diazabicyclo[3.2.1]octan-3-yl]pyridazin-3-yl]phenol]	< 10	30 to 70	< 10	F (F indicates −71%-−120%)	–
Nc1nnc(-c2ccccc2O)cc1N1CC2CCC(C1)N2c1ccnc(C#CCN2C[C@H]3CCO[C@H]3C2)c1 [Compound 113, 2-[5-[8-[2-[3-[(3aR,6aR)-2,3,3a,4,6,6a-hexahydrofuro[2,3-c]pyrrol-5-yl]prop-1-ynyl]-4-pyridyl]-3,8-diazabicyclo[3.2.1]octan-3-yl]-6-amino-pyridazin-3-yl]phenol]	< 10	0 to 30	10 to 100	E (E indicates −30%-−70%)	–
Nc1nnc(-c2ccccc2O)cc1N1CC2CCC(C1)N2c1ccnc(C#CCN2C3CCC2(CO)CC3)c1 [Compound 121, 2-[6-amino-5-[8-[2-[3-[1-(hydroxymethyl)-7-azabicyclo[2.2.1]heptan-7-yl]prop-1-ynyl]-4-pyridyl]-3,8-diazabicyclo[3.2.1]octan-3-yl]pyridazin-3-yl]phenol]	> 100	30 to 70	< 10	E (E indicates −30%-−70%)	–
Nc1nnc(-c2ccccc2O)cc1N1CC2CCC(C1)N2c1ccnc(C#CCN2CC(C(F)(F)F)C2)c1 [Compound 232, 2-[6-amino-5-[8-[2-[3-[3-(trifluoromethyl)azetidin-1-yl]prop-1-ynyl]-4-pyridyl]-3,8-diazabicyclo[3.2.1]octan-3-yl]pyridazin-3-yl]phenol]	< 10	30 to 70	10 to 100	E (E indicates −30%-−70%)	–
CC1(C)CCCN(CC#Cc2cc(N3C4CCC3CN(c3cc(-c5ccccc5O)nnc3N)C4)ccn2)CC1 [Compound 205, 2-[6-amino-5-[8-[2-[3-(4,4-dimethylazepan-1-yl)prop-1-ynyl]-4-pyridyl]-3,8-diazabicyclo[3.2.1]octan-3-yl]pyridazin-3-yl]phenol]	< 10	30 to 70	< 10	F (F indicates −71%-−120%)	–
Nc1nnc(-c2ccccc2O)cc1N1CC2CCC(C1)N2c1ccnc(C#CCN2CC3(CCCO3)C2)c1 [Compound 178, 2-[6-amino-5-[8-[2-[3-(5-oxa-2-azaspiro[3.4]octan-2-yl)prop-1-ynyl]-4-pyridyl]-3,8-diazabicyclo[3.2.1]octan-3-yl]pyridazin-3-yl]phenol]	< 10	30 to 70	10 to 100	F (F indicates −71%-−120%)	–
CC[C@@H]1COCCN1CC#Cc1cc(N2C3CCC2CN(c2cc(-c4ccccc4O)nnc2N)C3)ccn1 [Compound 48, 2-[6-amino-5-[8-[2-[3-[(3R)-3-ethylmorpholin-4-yl]prop-1-ynyl]-4-pyridyl]-3,8-diazabicyclo[3.2.1]octan-3-yl]pyridazin-3-yl]phenol]	10 to 100	0 to 30	10 to 100	E (E indicates −30%-−70%)	–
Nc1nnc(-c2ccccc2O)cc1N1CC2CCC(C1)N2c1ccnc(C#CCN2CC3(CCCCC3)C2)c1 [Compound 230, 2-[6-amino-5-[8-[2-[3-(2-azaspiro[3.5]nonan-2-yl)prop-1-ynyl]-4-pyridyl]-3,8-diazabicyclo[3.2.1]octan-3-yl]pyridazin-3-yl]phenol]	10 to 100	30 to 70	10 to 100	E (E indicates −30%-−70%)	–
Nc1nnc(-c2ccccc2O)cc1N1CC2CCC(C1)N2c1ccnc(C#CCN2CC(F)(C3CC3)C2)c1 [Compound 238, 2-[6-amino-5-[8-[2-[3-(3-cyclopropyl-3-fluoro-azetidin-1-yl)prop-1-ynyl]-4-pyridyl]-3,8-diazabicyclo[3.2.1]octan-3-yl]pyridazin-3-yl]phenol]	< 10	30 to 70	10 to 100	E (E indicates −30%-−70%)	–
Nc1nnc(-c2ccccc2O)cc1N1CC2CCC(C1)N2c1ccnc(C#CCCN2CCCCCC2)c1 [Compound 222, 2-[6-amino-5-[8-[2-[4-(azepan-l-yl)but-1-ynyl]-4-pyridyl]-3,8-diazabicyclo[3.2.1]octan-3-yl]pyridazin-3-yl]phenol]	< 10	71 to 120	< 10	F (F indicates −71%-−120%)	–
COC1CN(CC#Cc2cc(N3C4CCC3CN(c3cc(-c5ccccc5O)nnc3N)C4)ccn2)C1 [Compound 174, 2-[6-amino-5-[8-[2-[3-(3-methoxyazetidin-1-yl)prop-1-ynyl]-4-pyridyl]-3,8-diazabicyclo[3.2.1]octan-3-yl]pyridazin-3-yl]phenol]	10 to 100	30 to 70	10 to 100	F (F indicates −71%-−120%)	–
Nc1nnc(-c2ccccc2O)cc1N1CC2CCC(C1)N2c1ccnc(C#CCN2CCCCC2CO)c1 (centres unmarked) [Compound 55, 2-[6-amino-5-[8-[2-[3-[2-(hydroxymethyl)-1-piperidyl]prop-1-ynyl]-4-pyridyl]-3,8-diazabicyclo[3.2.1]octan-3-yl]pyridazin-3-yl]phenol]	10 to 100	30 to 70	10 to 100	E (E indicates −30%-−70%)	–
CC1CN(CC#Cc2cc(N3C4CCC3CN(c3cc(-c5ccccc5O)nnc3N)C4)ccn2)CCCC1O (centres unmarked) [Compound 196, 1-[3-[4-[3-[3-amino-6-(2-hydroxyphenyl)pyridazin-4-yl]-3,8-diazabicyclo[3.2.1]octan-8-yl]-2-pyridyl]prop-2-ynyl]-3-methyl-azepan-4-ol]	< 10	71 to 120	< 10	F (F indicates −71%-−120%)	–
Nc1nnc(-c2ccccc2O)cc1N1CC2CCC(C1)N2c1ccnc(C#CCN2CC(O)C2)c1 [Compound 168, 1-[3-[4-[3-[3-amino-6-(2-hydroxyphenyl)pyridazin-4-yl]-3,8-diazabicyclo[3.2.1]octan-8-yl]-2-pyridyl]prop-2-ynyl]azetidin-3-ol]	10 to 100	–	10 to 100	F (F indicates −71%-−120%)	E (E indicates −30%-−70%)
CC1CCCN(CC#Cc2cc(N3C4CCC3CN(c3cc(-c5ccccc5O)nnc3N)C4)ccn2)CC1 (centres unmarked) [Compound 200, 2-[6-amino-5-[8-[2-[3-(4-methylazepan-1-yl)prop-1-ynyl]-4-pyridyl]-3,8-diazabicyclo[3.2.1]octan-3-yl]pyridazin-3-yl]phenol]	< 10	71 to 120	< 10	F (F indicates −71%-−120%)	–
Nc1nnc(-c2ccccc2O)cc1N1CC2CCC(C1)N2c1ccnc(C#CCN2CC3CC2(CO)C3)c1 [Compound 116, 2-[6-amino-5-[8-[2-[3-[1-(hydroxymethyl)-2-azabicyclo[2.1.1]hexan-2-yl]prop-1-ynyl]-4-pyridyl]-3,8-diazabicyclo[3.2.1]octan-3-yl]pyridazin-3-yl]phenol]	< 10	0 to 30	10 to 100	E (E indicates −30%-−70%)	–
